One block for each compound: values may come before it.
Assays:
[1] = Shuttle-box, acquisition of two-way conditioned avoidance reflex; assay type: in vivo
Protocol: The acquisition of a two-way conditioned avoidance reflex (CAR) was analyzed in the shuttle-box during 5 consecutive days. […] It consists of six boxes, each is separated inside by a barrier with a small gate in the middle. […] They were given 100 trials per day. One trial consisted of 15 s intertrial interval, followed by 15 s CS. The last 5 s of CS overlapped the first s of US. At each learning session the number of CAR and intersignal reactions (IR) was automatically counted and evaluated by multiway analysis of variance (ANOVA).

serotonin (5HT) = assay: 5HT level and turnover rate of 5HT in rat brain parts; assay type: in vivo; settings: 1 hr after 30 mg/kg s.c.
Protocol: (§1) 11. The turnover rate of dopamine (TRDA), noradrenaline (TRNA) and serotonin (TR5 HT) was measured 1 hr after the injection of 30 mg/kg s.c. 2-methyl-thiazolo[4,5-c]quinoline-ethanesulphonate.

dopamine (DA) = assay: DA level and turnover rate of DA in rat striatum; assay type: in vivo; settings: 1 hr after 30 mg/kg s.c.
Protocol: as §1

[2] = Measurement of motility in the shuttle-box; assay type: in vivo; settings: 30-minute observation
Protocol: The apparatus described in the shuttle-box test is used also for investigating the motility of animals. In case of motility experiment all the stimuli are switched off and the animals are allowed to move freely from one compartment of the box to the other. […] Significancy is calculated by Student's test for two means.

[3] = Effect on basal metabolism (O2 consumption); assay type: in vivo, rats; settings: urethane 0.6 g/kg i.p., 30° C.
Protocol: The O2 consumption of rats was measured by the method of Issekutz and Issekutz (1952) at constant temperature (30° C.).
O2 consumption of the animals was expressed in ml/h and calculated for body surface, and given finally in ml/h/dm^2. Following injection of urethane and the basal O2 consumption was measured during 30 minutes. This was followed by the injection of the test substance and O2 consumption was registered immediately afterwards. The difference between the highest O2 consumption and the basal value was expressed in percent.
O2 consumption of the animals was calculated according to the following equation: [formula] V=2000 cm^3 P=pressure fall (mmHg)
T=period of measurement (h)
O2 consumption was calculated for body surface and expressed as ml/dm^2 /h. Body surface was calculated on the basis of the "Diack" formula: […]

[4] = Central nervous depressant effect
benzodiazepine receptor = assay: Benzodiazepine (BZD) receptor binding, 3H-diazepam displacement, crude cortical membrane preparation
Protocol: For the studies of benzodiazepine /BZD) receptor binding crude cortical membrane preparation was used. […] ^3 H-diazepam was incubated with the membrane for 1 hr at 0° C. in TRIS-citrate buffer, pH 6.8. Specific binding was determined in the presence of 10 μM diazepam. In displacement studies chlordiazepoxide was used as control drug.

[5] = Screening test: one session conditioning / unconditioned reflex, glass cylinder jump; assay type: in vivo, rats
Protocol: Was elaborated for studying learning and retention of rats during one session conditioning.
During conditioning rats are trained to jump onto the top of glass cylinder by the electric foot-shock (110 V). The escape reaction (unconditioned reflex, UR) is paired with a bell as conditioned stimulus. The criterion of learning is that conditioned reflex (CR) should be elicited 10 times with 10 s intervals without reinforcement. Retention of CR is taken positive when 24 h following the experiment CR can be elicited. In these experiments animals are distributed into 4 categories on the basis of their learning ability.

malaria = settings: cited from earlier work

Structure (SMILES): Cc1nc2cnc3ccccc3c2s1 [B compound, 2-methyl-thiazolo[4,5-c]quinoline-ethanesulfonate]
- acquisition of conditioned reflex, number of positive responses (F) ([1]; 10 mg/kg s.c., day 1): 7.5
- number of intersignal reactions (IR) ([1]; 10 mg/kg s.c., day 1): 11.4
- number of negative responses (-f) ([1]; 10 mg/kg s.c., day 1): 76.0
- acquisition of conditioned reflex, number of positive responses (F) ([1]; 10 mg/kg s.c., day 2): 20.2
- number of intersignal reactions (IR) ([1]; 10 mg/kg s.c., day 2): 9.1
- number of negative responses (-f) ([1]; 10 mg/kg s.c., day 2): 40.8
- acquisition of conditioned reflex, number of positive responses (F) ([1]; 10 mg/kg s.c., day 3): 20.2
- number of intersignal reactions (IR) ([1]; 10 mg/kg s.c., day 3): 7.6
- number of negative responses (-f) ([1]; 10 mg/kg s.c., day 3): 29.3
- acquisition of conditioned reflex, number of positive responses (F) ([1]; 10 mg/kg s.c., day 4): 17.8
- number of intersignal reactions (IR) ([1]; 10 mg/kg s.c., day 4): 4.5
- number of negative responses (-f) ([1]; 10 mg/kg s.c., day 4): 29.9
- acquisition of conditioned reflex, number of positive responses (F) ([1]; 10 mg/kg s.c., day 5): 14.5
- number of intersignal reactions (IR) ([1]; 10 mg/kg s.c., day 5): 3.3
- number of negative responses (-f) ([1]; 10 mg/kg s.c., day 5): 37.5
- acquisition of conditioned reflex, number of positive responses (F) ([1]; 25 mg/kg s.c., day 1): 8.7
- number of intersignal reactions (IR) ([1]; 25 mg/kg s.c., day 1): 12.4
- number of negative responses (-f) ([1]; 25 mg/kg s.c., day 1): 54.9
- acquisition of conditioned reflex, number of positive responses (F) ([1]; 25 mg/kg s.c., day 2): 4.2
- number of intersignal reactions (IR) ([1]; 25 mg/kg s.c., day 2): 5.0
- number of negative responses (-f) ([1]; 25 mg/kg s.c., day 2): 67.4
- acquisition of conditioned reflex, number of positive responses (F) ([1]; 25 mg/kg s.c., day 3): 8.9
- number of intersignal reactions (IR) ([1]; 25 mg/kg s.c., day 3): 9.2
- number of negative responses (-f) ([1]; 25 mg/kg s.c., day 3): 74.1
- acquisition of conditioned reflex, number of positive responses (F) ([1]; 25 mg/kg s.c., day 4): 4.0
- number of intersignal reactions (IR) ([1]; 25 mg/kg s.c., day 4): 4.9
- number of negative responses (-f) ([1]; 25 mg/kg s.c., day 4): 80.1
- acquisition of conditioned reflex, number of positive responses (F) ([1]; 25 mg/kg s.c., day 5): 2.5
- number of intersignal reactions (IR) ([1]; 25 mg/kg s.c., day 5): 3.3
- number of negative responses (-f) ([1]; 25 mg/kg s.c., day 5): 85.0
- 5HT level (serotonin (5HT); brainstem): 792.5 ± 36.9 ng/g
- TR5HT (turnover rate of 5HT) (serotonin (5HT); brainstem): 237.2 ng/g/h
- 5HT level (serotonin (5HT); teldiencephalon): 457.9 ± 24.2 ng/g
- TR5HT (turnover rate of 5HT) (serotonin (5HT); teldiencephalon): 53.9 ng/g/h
- DA level (dopamine (DA)): 9.14 ± 0.49 µg/g
- TRDA (turnover rate of DA) (dopamine (DA)): 1.4 ng/g/h

Structure (SMILES): Cc1nc2cnc3ccccc3c2s1.Cl [A compound, 2-methyl-thiazolo[4,5-c]quinoline-hydrochloride]
- acquisition of conditioned reflex, number of positive responses (F) ([1]; 5 mg/kg s.c., day 1): 17.8
- number of intersignal reactions (IR) ([1]; 5 mg/kg s.c., day 1): 9.5
- number of negative responses (-f) ([1]; 5 mg/kg s.c., day 1): 14.4
- acquisition of conditioned reflex, number of positive responses (F) ([1]; 5 mg/kg s.c., day 2): 29.6
- number of intersignal reactions (IR) ([1]; 5 mg/kg s.c., day 2): 8.9
- number of negative responses (-f) ([1]; 5 mg/kg s.c., day 2): 23.0
- acquisition of conditioned reflex, number of positive responses (F) ([1]; 5 mg/kg s.c., day 3): 24.3
- number of intersignal reactions (IR) ([1]; 5 mg/kg s.c., day 3): 3.2
- number of negative responses (-f) ([1]; 5 mg/kg s.c., day 3): 24.6
- acquisition of conditioned reflex, number of positive responses (F) ([1]; 5 mg/kg s.c., day 4): 23.0
- number of intersignal reactions (IR) ([1]; 5 mg/kg s.c., day 4): 2.9
- number of negative responses (-f) ([1]; 5 mg/kg s.c., day 4): 25.4
- acquisition of conditioned reflex, number of positive responses (F) ([1]; 5 mg/kg s.c., day 5): 29.4
- number of intersignal reactions (IR) ([1]; 5 mg/kg s.c., day 5): 2.3
- number of negative responses (-f) ([1]; 5 mg/kg s.c., day 5): 27.5
- acquisition of conditioned reflex, number of positive responses (F) ([1]; 10 mg/kg s.c., day 1): 12.0
- number of intersignal reactions (IR) ([1]; 10 mg/kg s.c., day 1): 8.9
- number of negative responses (-f) ([1]; 10 mg/kg s.c., day 1): 70.4
- acquisition of conditioned reflex, number of positive responses (F) ([1]; 10 mg/kg s.c., day 2): 14.7
- number of intersignal reactions (IR) ([1]; 10 mg/kg s.c., day 2): 7.3
- number of negative responses (-f) ([1]; 10 mg/kg s.c., day 2): 55.3
- acquisition of conditioned reflex, number of positive responses (F) ([1]; 10 mg/kg s.c., day 3): 7.2
- number of intersignal reactions (IR) ([1]; 10 mg/kg s.c., day 3): 2.7
- number of negative responses (-f) ([1]; 10 mg/kg s.c., day 3): 58.2
- acquisition of conditioned reflex, number of positive responses (F) ([1]; 10 mg/kg s.c., day 4): 5.5
- number of intersignal reactions (IR) ([1]; 10 mg/kg s.c., day 4): 2.1
- number of negative responses (-f) ([1]; 10 mg/kg s.c., day 4): 66.8
- acquisition of conditioned reflex, number of positive responses (F) ([1]; 10 mg/kg s.c., day 5): 7.3
- number of intersignal reactions (IR) ([1]; 10 mg/kg s.c., day 5): 2.1
- number of negative responses (-f) ([1]; 10 mg/kg s.c., day 5): 68.2
- acquisition of conditioned reflex, number of positive responses (F) ([1]; 25 mg/kg s.c., day 1): 7.0
- number of intersignal reactions (IR) ([1]; 25 mg/kg s.c., day 1): 10.7
- number of negative responses (-f) ([1]; 25 mg/kg s.c., day 1): 83.6
- acquisition of conditioned reflex, number of positive responses (F) ([1]; 25 mg/kg s.c., day 2): 6.6
- number of intersignal reactions (IR) ([1]; 25 mg/kg s.c., day 2): 5.7
- number of negative responses (-f) ([1]; 25 mg/kg s.c., day 2): 85.1
- acquisition of conditioned reflex, number of positive responses (F) ([1]; 25 mg/kg s.c., day 3): 2.6
- number of intersignal reactions (IR) ([1]; 25 mg/kg s.c., day 3): 4.4
- number of negative responses (-f) ([1]; 25 mg/kg s.c., day 3): 94.3
- acquisition of conditioned reflex, number of positive responses (F) ([1]; 25 mg/kg s.c., day 4): 1.6
- number of intersignal reactions (IR) ([1]; 25 mg/kg s.c., day 4): 3.8
- number of negative responses (-f) ([1]; 25 mg/kg s.c., day 4): 93.8
- acquisition of conditioned reflex, number of positive responses (F) ([1]; 25 mg/kg s.c., day 5): 3.1
- number of intersignal reactions (IR) ([1]; 25 mg/kg s.c., day 5): 4.2
- number of negative responses (-f) ([1]; 25 mg/kg s.c., day 5): 95.0
- motility (spontaneous crossings of the gate) [2]: slight motility decreasing effect
- rate of metabolism / O2 consumption [3]: slightly

- binding by benzodiazepine receptors (benzodiazepine receptor): not bound by benzodiazepine receptors
Structure (SMILES): Cc1nc2cnc3ccccc3c2s1 [Formula I, 2-methyl-thiazolo[4,5-c]quinoline]
- spasmolytic effect (Spasmolytic effect): void of any spasmolytic effect
- central nervous depressant effect [4]: significantly stronger central depressant effect than benzodiazepines
- displacement of 3H-diazepam specific binding (benzodiazepine receptor; crude cortical membrane, 1 hr, 0° C., TRIS-citrate buffer, pH 6.8): even in high concentration did not alter the specific binding of ^3 H-diazepam
- escape of animals in the one session unconditioned reflex test ([5]; even in high doses): enables the escape of animals
- inhibition of non-specific activation mechanisms ([5]; rat, in vivo): does not inhibit non-specific activation mechanisms
- effect against malaria (malaria): completely ineffective against malaria

Reference: patent US4778811A, “Pharmaceutical compositions of 2-methyl-thiazolo[4,5-c]quinoline” (EGIS Gyogyszergyar, priority 1985, dated 1988)
